Assay results taken from EP0418835B1, “Novel alkaline pullulanase y having alpha-amylase activity, microorganism producing the same, and process for producing the same” (KAO CORPORATION, priority 1989, dated 1991).

Tests used:
Assay type in all cases: biochemical, Bacillus sp. KSM-AP1378
alkaline pullulanase Y [1] = assay: Substrate specificity (relative activity on various substrates); details: substrate concentration 1 x 10⁻² M
Description: (§1) 0.1 ml of enzyme solution was added to 0.9 ml of each substrate solution prepared from each buffer solution containing pullulan (final concentration in the reaction system: 0.25% w/v) and the mixture was reacted at 40°C for 30 minutes. After the reaction, reducing sugars were quantitatively determined by means of the 3,5-dinitro-salicylic acid (DNS) procedure. Specifically, 1.0 ml of a DNS reagent was added to 1.0 ml of reaction mixture and the mixture was heated at 100°C for 5 minutes to develop a color. After cooling, the mixture was diluted by adding 4.0 ml of deionized water. This solution was subjected to colorimetric quantitative analysis at a wave length of 535 nm. One unit (1 U) of enzyme activity was defined as the amount of enzyme which released 1 µmol of reducing sugar (as glucose) per minute under the standard assay conditions.
Acts on pullulan, soluble starch, and glycogen. (See Table 1) Table 1

alkaline pullulanase Y [2] = assay: Effects of metal ions and chelating agents on α-amylase activity (DNS reducing sugar assay)
Description: as §1, with “soluble starch” for “pullulan”, “50°C” for “40°C”, “15” for “30”, “a DNS method.” for “the 3,5-dinitro-salicylic acid (DNS) procedure.”

alkaline pullulanase Y [3] = assay: Effects of metal ions and chelating agents on pullulanase activity (DNS reducing sugar assay)
Description: as §1

OC[C@H]1O[C@H](O[C@H]2[C@H](O)[C@@H](O)C(O)O[C@@H]2CO)[C@H](O)[C@@H](O)[C@@H]1O (mixture of isomers) [Maltose]
Relative Activity (%) (alkaline pullulanase Y [1]): 0%

[Cl][Cd][Cl] [CdCl₂]
Residual activity (%) α-amylase Activity (alkaline pullulanase Y [2]; metal salt 1 mM): 38% | Residual activity (%) Pullulanase Activity (alkaline pullulanase Y [3]; metal salt 1 mM): 80%

O=C(O)CN(CCN(CC(=O)O)CC(=O)O)CC(=O)O [EDTA]
Residual activity (%) Pullulanase Activity (alkaline pullulanase Y [3]; chelating agent 10 mM): 77%

O=C(O)CN(CCOCCOCCN(CC(=O)O)CC(=O)O)CC(=O)O [EGTA]
Residual activity (%) α-amylase Activity (alkaline pullulanase Y [2]; chelating agent 10 mM): 18% | Residual activity (%) α-amylase Activity when Ca⁺² ions was again added (alkaline pullulanase Y [2]; chelating agent 10 mM, Ca⁺² ions added again (value in parenthesis)): 91% | Residual activity (%) Pullulanase Activity (alkaline pullulanase Y [3]; chelating agent 10 mM): 65%

OC[C@H]1O[C@@H](OC[C@H]2OC(O)[C@H](O)[C@@H](O)[C@@H]2O)[C@H](O)[C@@H](O)[C@@H]1O (some centres unmarked) [Gentiobiose]
Relative Activity (%) (alkaline pullulanase Y [1]): 0%

OC[C@H]1O[C@H](OC[C@H]2OC(O)[C@H](O)[C@@H](O)[C@@H]2O)[C@H](O)[C@@H](O)[C@@H]1O (some centres unmarked) [Isomaltose]
Relative Activity (%) (alkaline pullulanase Y [1]): 4%

OC[C@H]1O[C@H](OC[C@H]2O[C@H](OC[C@H]3OC(O)[C@H](O)[C@@H](O)[C@@H]3O)[C@H](O)[C@@H](O)[C@@H]2O)[C@H](O)[C@@H](O)[C@@H]1O (some centres unmarked) [Isomaltotriose]
Relative Activity (%) (alkaline pullulanase Y [1]): 11%

OC[C@H]1O[C@H](O[C@H]2[C@H](O)[C@@H](O)[C@@H](O[C@H]3[C@H](O)[C@@H](O)C(O)O[C@@H]3CO)O[C@@H]2CO)[C@H](O)[C@@H](O)[C@@H]1O (some centres unmarked) [Maltotriose]
Relative Activity (%) (alkaline pullulanase Y [1]): 0%

[Cl][Mn][Cl] [MnCl₂]
Residual activity (%) α-amylase Activity (alkaline pullulanase Y [2]; metal salt 1 mM): 28% | Residual activity (%) Pullulanase Activity (alkaline pullulanase Y [3]; metal salt 1 mM): 51%

OC[C@H]1O[C@H](OC[C@H]2O[C@H](O[C@H]3[C@H](O)[C@@H](O)C(O)O[C@@H]3CO)[C@H](O)[C@@H](O)[C@@H]2O)[C@H](O)[C@@H](O)[C@@H]1O (some centres unmarked) [Panose]
Relative Activity (%) (alkaline pullulanase Y [1]): 0%

[Cl][Pb][Cl] [PbCl₂]
Residual activity (%) α-amylase Activity (alkaline pullulanase Y [2]; metal salt 1 mM): 53% | Residual activity (%) Pullulanase Activity (alkaline pullulanase Y [3]; metal salt 1 mM): 53%

[Cl-].[Cl-].[Zn+2] [ZnCl₂]
Residual activity (%) α-amylase Activity (alkaline pullulanase Y [2]; metal salt 1 mM): 57% | Residual activity (%) Pullulanase Activity (alkaline pullulanase Y [3]; metal salt 1 mM): 93%

HgCl₂
Residual activity (%) α-amylase Activity (alkaline pullulanase Y [2]; metal salt 1 mM): 53% | Residual activity (%) Pullulanase Activity (alkaline pullulanase Y [3]; metal salt 1 mM): 36%
